Results from patent US20030186887A1, “Compounds for detection of infection by chlamydophila abortus” (priority 2000, published 2003).
“And” between values parts separate entries of the source, which are not always exact repeats. Equal values may be shown once. Ends that are not written are not given here. * marks the point of attachment. Biotin = O=C1N[C@H]2[C@H](CS[C@H]2CCCCC(=O)*)N1

Tests used:
[1] = tested on: sera from ewes known not to have been infected with C. abortus; SPF lamb antisera; experiment: ELISA, specificity of peptides with sera from uninfected ewes and SPF lamb antisera (first Table 4); type: binding, sheep; parameters: reactivity with serum (quantity not given): unit not given here
Description: (§1) Application of the peptide mixture is performed as follows:
(§2) Two dilutions of standard serum are used.
Specificities of Peptides 2-9,2-10, 1B, 1A/1A and 4B/4B as tested with sera from ewes known not to have been infected with C. abortus, and which had shown positive reactivity in previous tests with various forms of VS 1 and VS2.

antibodies to C. abortus = experiment: ELISA, serological reactivity of biotinylated peptides against serum dilutions (Tables 1 and 2); type: binding, sheep
Description: as §1, §2
The data illustrate that the length of compound has a major impact on serological reactivity.
Thus, substitutions within the core epitopes described in this invention are possible without too much loss in compound serological reactivity.

Substance | Net Optical Density (antibodies to C. abortus; serum dilution 1/100) | Net Optical Density (antibodies to C. abortus; serum dilution 1/200) | Net Optical Density (antibodies to C. abortus; serum dilution 1/400) | Net Optical Density (antibodies to C. abortus; serum dilution 1/800) | Net Optical Density (antibodies to C. abortus; serum dilution 1/1600) | Net Optical Density (antibodies to C. abortus; serum dilution 1/3200) | Net Optical Density (antibodies to C. abortus; serum dilution 1/6400) | other results
ATALDTSNKFATALDTSNKFA (ATALDTSNKFATALDTSNKFA) [Compound 4B/4B] |  |  |  |  |  |  |  | reactivity with serum (quantity not given) ([1]; SPF lamb antiserum 2406/2 C.ab, vaccinated with 28/68 (C. abortus)): OVER; reactivity with serum (quantity not given) ([1]; SPF lamb antiserum 2407/2 W73, vaccinated with W73 (C. pecorum)): 0.8; reactivity with serum (quantity not given) ([1]; SPF lamb antiserum F1/2 S45, vaccinated with S45 (C. suis)): 1.2; reactivity with serum (quantity not given) ([1]; SPF lamb antiserum F6/2 Cap.ab, vaccinated with Cap. abortion 15 (C. abortus)): 0.7; reactivity with serum (quantity not given) ([1]; SPF lamb antiserum F8/2 P787, vaccinated with P787 (C. pecorum)): 0.4; reactivity with serum (quantity not given) ([1]; SPF lamb serum 2397/1, pre-vaccination): 0.8; reactivity with serum (quantity not given) ([1]; SPF lamb serum F1/1, pre-vaccination): 0.5; reactivity with serum (quantity not given) ([1]; serum of animal no. 3178): 0.6; reactivity with serum (quantity not given) ([1]; serum of animal no. 3201): 1.7; reactivity with serum (quantity not given) ([1]; serum of animal no. A2213): OVER; reactivity with serum (quantity not given) ([1]; serum of animal no. A2261): 0.4; reactivity with serum (quantity not given) ([1]; serum of animal no. B2123): 0.4; reactivity with serum (quantity not given) ([1]; serum of animal no. X2895): 0.5; reactivity with serum (quantity not given) ([1]; serum of animal no. X2899): 0.4; reactivity with serum (quantity not given) ([1]; serum of animal no. Z148): 0.7; reactivity with serum (quantity not given) ([1]; serum of animal no. Z2618): 0.55; reactivity with serum (quantity not given) ([1]; serum of animal no. Z2646): 1.0; reactivity with serum (quantity not given) ([1]; serum of animal no. Z2739): 0.4
Biotin-CLIGVKGSSAAD [Compound 2-4] | 2.173 | 1.241 | 0.572 | 0.278 | 0.133 | 0.064 | 0.040 | 
Biotin-KGSSIAAD [Compound 2-1] | 0.000 | 0.000 | 0.000 | 0.000 | 0.000 | 0.000 | 0.000 | reactivity (in words) (antibodies to C. abortus; studies of Table 1): no reactivity whatsoever
Biotin-KKKKKGLIGVKGSS L AAD [Compound 2-11] | 2.008 | 1.230 | 0.637 | 0.299 | 0.133 | 0.053 | 0.026 | effect of substituting isoleucine with leucine within Epitope 2 on reactivity (antibodies to C. abortus; 2-9 compared with 2-3, 2-11 compared with 2-5): small decrease in reactivity
Biotin-KKKKKGLIGVKGSSIAAD [Compound 2-5] | 2.344 | 1/468 and 1.468 | 0.771 | 0.358 | 0.156 | 0.066 | 0.036 | 
Biotin-KKKKKKGSSIAAD [Compound 2-2] | 1.515 | 0.786 | 0.385 | 0.174 | 0.068 | 0.046 | 0.024 | reactivity relative to that displayed by Compound 2-3 (antibodies to C. abortus; studies of Table 1): approximately 70%
